In patent publication US20200239587A1, “SENSITIZATION OF TUMORS TO THERAPIES THROUGH ENDOGLIN ANTAGONISM” (Cedars-Sinai Medical Center, priority 2016, published 2020):
“Also recorded” adds a separate entry of the source.

Experiments:
Assay type in all cases: cell-based, human
mtDNA in 22Rv1 cells = assay: Mitochondrial DNA quantitation; settings: radiation in the presence of TRC105; p<0.0001
Protocol: FIGS. 24A-24D depict that PGC1α and mitochondrial biogenesis are regulated by BMP/CD105. 22Rv1 cells were incubated with IgG or TRC105 with or without 4 Gy irradiation. All measurements were made 72 hours post radiation. FIG. 24A) Western blot for whole cell lysate, nuclear and cytoplasmic fractions were independently analyzed for PGC1α expression. Loading controls included β-actin (whole cell), lamin B (nuclear marker), and Rho A (cytoplasm marker). FIG. 24B) Immunofluorescent localization of PGC1α was visualized with DAPI nuclear counterstain. FIG. 24C) mRNA expression of PGC1α target genes, NRF1, MTFA, and CPT1C was measured. mRNA expression was normalized to GAPDH and untreated IgG 0 Gy. FIG. 24D) Mitochondrial DNA (mtDNA) was measured from total DNA extracts and normalized to nuclear DNA and compared to untreated IgG 0 Gy. Data are reported as means+/−S.D. of 3 independent experiments. (***p<0.001, ****p<0.0001).

C42B = assay: MTT proliferation assay; settings: TRC105 plus enzalutamide
Protocol: (§1) CW22Rv1, C42B, and PC3 cells from ATCC were expanded as directed. Prostatectomy specimens from Cedars-Sinai Medical Center or the Greater Los Angeles Veterans Affairs were cultured to generate NAF and CAF cells using the same method, as C57BL/6 mouse wild-type prostatic fibroblasts were grown as previously reported (Franco et al., 2011, Cancer research 71, 1272-1281; Kiskowski et al., 2011, Cancer research 68, 4709-4718). TRC105 and M1043 were provided by TRACON Pharmaceuticals, Inc. (San Diego, Calif.). Enzalutamide (Xtandi) was purchased from Medivation (San Francisco, Calif.).
(§2) 3000 cells per 96-well were treated for 72 hours using 5 wells per treatment. MTT reagent (M6494, Life Technologies) was prepared as directed, incubated for one hour at 37° C., and analyzed using manufacturer's recommendations.

Rv1 = assay: MTT proliferation assay; settings: TRC105 plus enzalutamide
Protocol: as §1, §2

PC3 cells = assay: MTT proliferation assay; settings: enzalutamide in the presence of TRC105
Protocol: as §1, §2

22Rv1 cells [1] = assay: Annexin-V apoptosis by FACS after irradiation; settings: TRC105 with 4 Gy radiation vs radiation alone, 5 days
Protocol: FIG. 18A) Cell surface CD105 expression was measured in PC3, C42b, and 22Rv1 72 hours after 4 Gy irradiation treatment by FACS analysis and compared to cells not irradiated (control). FIG. 18B) Cell surface CD105 expression was measured in cell lines following a dose range of irradiation (0, 2, 4, or 6 Gy). FIG. 18C) The durability of cell surface CD105 expression in 22Rv1 was determined 0, 0.5, 4, 8, 24, 48, 72, 120, and 168 hours following 4 Gy irradiation. CD105 cell surface expression fold change was normalized to levels expressed prior to irradiation. FIG. 18D) Western blot for phosphorylated-Smad1/5 was measured in CW22Rv1 cells in the presence or absence of serum starvation and treatment with 50 ng/ml BMP4 or 1 μg/ml TRC105. β-actin expression served as the loading control. FIG. 18E) Annexin-V expression was measured in 22Rv1 cells by FACS analysis 5 days following 4 Gy irradiation in the presence and absence of TRC105. FIG. 18F) Clonogenic assay was measured 10 days following irradiation of CW22Rv1 and C42b cells in a dose range of 0 to 6 Gy in the presence of 1 μg/ml IgG or TRC105. Data are reported as a mean+/−S.D. (**p<0.01, ***p<0.001).

[2] = tested on: survivin and full length PARP1 in CW22Rv1; assay: Survival proteins after radiation and TRC105; settings: 4Gy radiation and TRC105, 5 days
22Rv1 cells [3] = assay: COMET assay; settings: irradiated
Protocol: 22Rv1 were pre-treated with 1 μg/ml TRC105 24 hours prior to irradiation with 4 Gy. FIG. 22A) γ-H2AX or p53 bp were imunolocalized at 4, 24, and 48 hours post radiation. Foci per nuclei were quantified (n=100). FIG. 22B) Comet assay was performed 30 minutes and 24 hours following irradiation. The tail moment was quantified (n=50). FIG. 22C) Cell cycle analysis was performed on 22Rv1 at 0, 4, 8, and 24 hours post radiation in the presence of IgG or TRC105 (n=3) in 3 independent experiments. (***p<0.001, ****p<0.0001).

22Rv1 cells [4] = assay: Total cellular ATP; settings: with or without 4 Gy, 0-168 hours
Protocol: Cells were analyzed for mito-stress test by Seahorse-XF 168 hours following 4 Gy of radiation in the presence of IgG or TRC105. FIG. 26A) Basal respiration, non-mito respiration, proton leak, spare respiratory capacity, FIG. 26B) extracellular acidification rate (ECAR) and FIG. 26C) mitochondrial dependent ATP production were quantitated using Wave 2.3.0 analysis. Data are reported as mean+/−S.D. of a representative experiment (n=5) of 3 independent experiments. FIGS. 26A-26C, the first/left column depicts 0Gy+IgG, the second column depicts 0Gy+TRC105, the third column depicts 4Gy+IgG and the last/right column depicts 4Gy+TRC105. FIG. 26D) 22Rv1 cells treated with IgG, TRC105 or nicotinamide were irradiated (4 Gy). Total cellular ATP was measured 0, 24, 72, 120, and 168 hours post radiation. Within each group, the left column is IgG, middle column is TRC105 and the right column is nicotinamide. Data are reported as mean+/−S.D. of 3 independent experiments. (***p<0.001, ****p<0.0001).

[5] = tested on: MTCO1 of complex-IV and NDUFB8 of complex-I in 22Rv1; assay: Western blot of mitochondrial electron transport chain proteins; settings: 4Gy+TRC105 vs radiation alone, 72 hours
Protocol: Lysate was collected 72 hours post irradiation for Western blot. FIG. 25A) Blots were probed for a cocktail of mitochondrial complex proteins. Protein levels of MTCO1 of complex-IV and NDUFB8 of complex-I were normalized to ponceau. […] Within each group, the first/left column depicts 0Gy+IgG, the second column depicts 0Gy+TRC105, the third column depicts 4Gy+IgG and the last/right column depicts 4Gy+TRC105. (**p<0.01, ***p<0.001)

TRC105: partially humanized monoclonal antibody that blocks BMP signaling; human-specific CD105 (endoglin) neutralizing antibody from Tracon Pharmaceuticals
mtDNA (mtDNA in 22Rv1 cells): dramatic down regulation of mtDNA
cell proliferation (MTT), addition of TRC105 to enzalutamide (C42B): no additional impact
cell proliferation (MTT), addition of TRC105 to enzalutamide (Rv1): no additional impact
viability (MTT) (PC3 cells): insensitive
apoptosis measured by Annexin-V (22Rv1 cells [1]): significantly increased apoptosis
survival proteins (survivin and full length PARP1) [2]: precipitous down regulation of survival proteins
tail moment (22Rv1 cells [3]; 30 minutes post radiation, p<0.001): significant increase in tail moment
tail moment (22Rv1 cells [3]; after 24 hours): no significant difference
cellular ATP stores (22Rv1 cells [4]): depleted regardless of radiation treatment
mitochondrial electron transport chain proteins MTCO1 and NDUFB8 [5]: down-regulation of CIV-MTCO1 and CI-NDUF88; also recorded: significantly lower
